Source: EP0908457B1, “3-(1,2-benzisothiazol- and isoxazol-5-Y1)-2,4(1H,3H)-pyrimidinedione or thione and 3-(1,2-benzisothiazol- and isoxazol-5-y1)-4(3H)-pyrimidinone or thione herbicidal agents” (BASF AKTIENGESELLSCHAFT, priority 1997, dated 1999)

Key:
[1] = system: Monochoria vaginalis, Presl.; experiment: Preemergence weed control under flooded paddy conditions, MOOVA (Monochoria); format: in vivo; settings: flooded paddy; as to herbicidal effect rating, MOOVA: meaning of each grade not given here
[2] = system: Cyperus serotinus, Rottb.; experiment: Preemergence weed control under flooded paddy conditions, CYPSE (Flatsedge); format: in vivo; as to herbicidal effect rating, CYPSE: meaning of each grade not given here
Cyperus iria = experiment: Preemergence weed control under flooded paddy conditions, CYPIR (Rice Flatsedge); format: in vivo; settings: flooded paddy; as to herbicidal effect rating, CYPIR: meaning of each grade not given here
[3] = system: Echinochloa oryzoides (Ard.) Fritsch.; experiment: Preemergence weed control under flooded paddy conditions, ECHORC (Watergrass (Calif.)); format: in vivo; settings: flooded paddy; as to herbicidal effect rating, ECHORC: meaning of each grade not given here
Sagittaria pygmaea, L. = experiment: Preemergence weed control under flooded paddy conditions, SAGPY (Arrowhead (Pygmaea)); format: in vivo; settings: flooded paddy; as to herbicidal effect rating, SAGPY: meaning of each grade not given here
[4] = system: Oryza sativa, (L.) Tebonnet; experiment: Rice tolerance to post-transplant applications under flooded paddy conditions (Example 187), ORYSAT (Rice, Tebonnet); as to herbicidal effect rating ORYSAT: meaning of each grade not given here
[5] = 0.0620 kg/ha, preemergence, rated three to four weeks after treatment
[6] = 0.1250 kg/ha, preemergence, rated three to four weeks after treatment
[7] = 0.2500 kg/ha, preemergence, rated three to four weeks after treatment
[8] = 0.0620 kg/ha, rated three to four weeks after treatment
[9] = 0.1250 kg/ha, rated three to four weeks after treatment
[10] = 0.2500 kg/ha, rated three to four weeks after treatment
[11] = Rate 0.0320 kg/ha, preemergence weeds, rated three to four weeks after treatment
[12] = Rate 0.0620 kg/ha, preemergence weeds, rated three to four weeks after treatment
[13] = Rate 0.1250 kg/ha, preemergence weeds, rated three to four weeks after treatment
[14] = Rate 0.2500 kg/ha, preemergence weeds, rated three to four weeks after treatment
[15] = 0.0320 kg/ha, preemergence, rated three to four weeks after treatment
[16] = 0.0320 kg/ha, rated three to four weeks after treatment
[17] = Rate 0.0320 kg/ha, preemergence, rated 3-4 weeks after treatment
[18] = Rate 0.0620 kg/ha, preemergence, rated 3-4 weeks after treatment
[19] = Rate 0.1250 kg/ha, preemergence, rated 3-4 weeks after treatment
[20] = Rate 0.2500 kg/ha, preemergence, rated 3-4 weeks after treatment
[21] = Rate 0.0320 kg/ha, rated 3-4 weeks after treatment
[22] = Rate 0.0620 kg/ha, rated 3-4 weeks after treatment
[23] = Rate 0.1250 kg/ha, rated 3-4 weeks after treatment
[24] = Rate 0.2500 kg/ha, rated 3-4 weeks after treatment
[25] = Rate 0.5000 kg/ha, preemergence, rated 3-4 weeks after treatment

Cn1c(C(F)(F)F)cc(=O)n(-c2ccc3snc(C(C)(C)C(N)=O)c3c2)c1=O [Example 509, 1,2-Benzisothiazole-3-acetamide, 5-[3,6-dihydro-3-methyl-2,6-dioxo-4-(trifluoromethyl)-1(2H)-pyrimidinyl]-alpha,alpha-dimethyl-]
MOOVA herbicidal rating [1, 5]: 0.0
MOOVA herbicidal rating [1, 6]: 4.0
MOOVA herbicidal rating [1, 7]: 9.0
CYPSE herbicidal rating [2, 5]: 0.0
CYPSE herbicidal rating [2, 6]: 0.0
CYPSE herbicidal rating [2, 7]: 7.0
CYPIR herbicidal rating (Cyperus iria; [5]): 0.0
CYPIR herbicidal rating (Cyperus iria; [6]): 4.0
CYPIR herbicidal rating (Cyperus iria; [7]): 7.0
ECHORC herbicidal rating [3, 5]: 0.0
ECHORC herbicidal rating [3, 6]: 2.0
ECHORC herbicidal rating [3, 7]: 7.0
SAGPY herbicidal rating (Sagittaria pygmaea, L.; [5]): 0.0
SAGPY herbicidal rating (Sagittaria pygmaea, L.; [6]): 3.0
SAGPY herbicidal rating (Sagittaria pygmaea, L.; [7]): 6.0
ORYSAT herbicidal rating (rice tolerance) [4, 8]: 0.0
ORYSAT herbicidal rating (rice tolerance) [4, 9]: 3.0
ORYSAT herbicidal rating (rice tolerance) [4, 10]: 7.0

CC(C)NC(=O)c1nsc2ccc(-n3c(=O)cc(C(F)(F)F)n(C)c3=O)cc12 [Example 330, 1,2-Benzisothiazole-3-carboxamide, 5-[3,6-dihydro-3-methyl-2,6-dioxo-4-(trifluoromethyl)-1(2H)-pyrimidinyl]-N-isopropyl-]
herbicidal effect rating, MOOVA [1, 11]: 9.0
herbicidal effect rating, MOOVA [1, 12]: 9.0
herbicidal effect rating, MOOVA [1, 13]: 9.0
herbicidal effect rating, MOOVA [1, 14]: 9.0
herbicidal effect rating, CYPSE [2, 11]: 5.0
herbicidal effect rating, CYPSE [2, 12]: 5.0
herbicidal effect rating, CYPSE [2, 13]: 5.0
herbicidal effect rating, CYPSE [2, 14]: 5.0
herbicidal effect rating, CYPIR (Cyperus iria; [11]): 0.0
herbicidal effect rating, CYPIR (Cyperus iria; [12]): 0.0
herbicidal effect rating, CYPIR (Cyperus iria; [13]): 6.0
herbicidal effect rating, CYPIR (Cyperus iria; [14]): 6.0
herbicidal effect rating, ECHORC [3, 11]: 7.0
herbicidal effect rating, ECHORC [3, 12]: 7.0
herbicidal effect rating, ECHORC [3, 13]: 9.0
herbicidal effect rating, ECHORC [3, 14]: 9.0
herbicidal effect rating, SAGPY (Sagittaria pygmaea, L.; [11]): 0.0
herbicidal effect rating, SAGPY (Sagittaria pygmaea, L.; [12]): 0.0
herbicidal effect rating, SAGPY (Sagittaria pygmaea, L.; [13]): 0.0
herbicidal effect rating, SAGPY (Sagittaria pygmaea, L.; [14]): 0.0
herbicidal effect rating ORYSAT ([4]; Rate 0.0320 kg/ha, rated three to four weeks after treatment): 7.0
herbicidal effect rating ORYSAT ([4]; Rate 0.0620 kg/ha, rated three to four weeks after treatment): 7.0
herbicidal effect rating ORYSAT ([4]; Rate 0.1250 kg/ha, rated three to four weeks after treatment): 7.0
herbicidal effect rating ORYSAT ([4]; Rate 0.2500 kg/ha, rated three to four weeks after treatment): 7.0

CC(C)N(C(C)C)S(=O)(=O)NC(=O)c1nsc2ccc(-n3c(=O)cc(C(F)(F)F)n(C)c3=O)cc12 [Example 500, 1,2-Benzisothiazole-3-carboxamide, 5-[3,6-dihydro-3-methyl-2,6-dioxo-4-(trifluoromethyl)-1(2H)-pyrimidinyl)-N-(diisopropylsulfamoyl)-]
MOOVA herbicidal rating [1, 15]: 7.0
MOOVA herbicidal rating [1, 5]: 9.0
MOOVA herbicidal rating [1, 6]: 9.0
MOOVA herbicidal rating [1, 7]: 9.0
CYPSE herbicidal rating [2, 15]: 0.0
CYPSE herbicidal rating [2, 5]: 0.0
CYPSE herbicidal rating [2, 6]: 0.0
CYPSE herbicidal rating [2, 7]: 0.0
CYPIR herbicidal rating (Cyperus iria; [15]): 6.0
CYPIR herbicidal rating (Cyperus iria; [5]): 6.0
CYPIR herbicidal rating (Cyperus iria; [6]): 6.0
CYPIR herbicidal rating (Cyperus iria; [7]): 9.0
ECHORC herbicidal rating [3, 15]: 4.0
ECHORC herbicidal rating [3, 5]: 6.0
ECHORC herbicidal rating [3, 6]: 7.0
ECHORC herbicidal rating [3, 7]: 9.0
SAGPY herbicidal rating (Sagittaria pygmaea, L.; [15]): 5.0
SAGPY herbicidal rating (Sagittaria pygmaea, L.; [5]): 7.0
SAGPY herbicidal rating (Sagittaria pygmaea, L.; [6]): 7.0
SAGPY herbicidal rating (Sagittaria pygmaea, L.; [7]): 9.0
ORYSAT herbicidal rating (rice tolerance) [4, 16]: 2.0
ORYSAT herbicidal rating (rice tolerance) [4, 8]: 2.0
ORYSAT herbicidal rating (rice tolerance) [4, 9]: 2.0
ORYSAT herbicidal rating (rice tolerance) [4, 10]: 2.0

Cc1cccc(CS(=O)(=O)NC(=O)c2nsc3ccc(-n4c(=O)cc(C(F)(F)F)n(C)c4=O)cc23)c1 [Example 483, 1,2-Benzisothiazole-3-carboxamide, 5-[3,6-dihydro-3-methyl-2,6-dioxo-4-(trifluoromethyl)-1(2H)-pyrimidinyl]-N-[(m-methylbenzyl)sulfonyl]-]
MOOVA herbicidal rating [1, 15]: 7.0
MOOVA herbicidal rating [1, 5]: 9.0
MOOVA herbicidal rating [1, 6]: 9.0
MOOVA herbicidal rating [1, 7]: 9.0
CYPSE herbicidal rating [2, 5]: 4.0
CYPSE herbicidal rating [2, 7]: 6.0
CYPIR herbicidal rating (Cyperus iria; [15]): 0.0
CYPIR herbicidal rating (Cyperus iria; [5]): 2.0
CYPIR herbicidal rating (Cyperus iria; [6]): 5.0
CYPIR herbicidal rating (Cyperus iria; [7]): 6.0
ECHORC herbicidal rating [3, 15]: 6.0
ECHORC herbicidal rating [3, 5]: 7.0
ECHORC herbicidal rating [3, 6]: 7.0
ECHORC herbicidal rating [3, 7]: 7.0
SAGPY herbicidal rating (Sagittaria pygmaea, L.; [15]): 0.0
SAGPY herbicidal rating (Sagittaria pygmaea, L.; [5]): 0.0
SAGPY herbicidal rating (Sagittaria pygmaea, L.; [6]): 3.0
SAGPY herbicidal rating (Sagittaria pygmaea, L.; [7]): 5.0
ORYSAT herbicidal rating (rice tolerance) [4, 16]: 3.0
ORYSAT herbicidal rating (rice tolerance) [4, 8]: 3.0
ORYSAT herbicidal rating (rice tolerance) [4, 9]: 5.0
ORYSAT herbicidal rating (rice tolerance) [4, 10]: 6.0

Cn1c(C(F)(F)F)cc(=O)n(-c2ccc3snc(/C=C/C(=O)c4ccccc4)c3c2)c1=O [Example 564, 2,4(1H,3H)-Pyrimidinedione, 1-methyl-3-[3-(3-oxo-3-phenylpropenyl)-1,2-benzisothiazol-5-yl]-6-(trifluoromethyl)-, (E)-]
herbicidal effect rating, MOOVA [1, 17]: 9.0
herbicidal effect rating, MOOVA [1, 18]: 9.0
herbicidal effect rating, MOOVA [1, 19]: 9.0
herbicidal effect rating, MOOVA [1, 20]: 9.0
herbicidal effect rating, CYPSE [2, 17]: 0.0
herbicidal effect rating, CYPSE [2, 18]: 0.0
herbicidal effect rating, CYPSE [2, 19]: 0.0
herbicidal effect rating, CYPSE [2, 20]: 4.0
herbicidal effect rating, CYPIR (Cyperus iria; [17]): 6.0
herbicidal effect rating, CYPIR (Cyperus iria; [18]): 6.0
herbicidal effect rating, CYPIR (Cyperus iria; [19]): 7.0
herbicidal effect rating, CYPIR (Cyperus iria; [20]): 9.0
herbicidal effect rating, ECHORC [3, 17]: 4.0
herbicidal effect rating, ECHORC [3, 18]: 4.0
herbicidal effect rating, ECHORC [3, 19]: 5.0
herbicidal effect rating, ECHORC [3, 20]: 7.0
herbicidal effect rating, SAGPY (Sagittaria pygmaea, L.; [17]): 0.0
herbicidal effect rating, SAGPY (Sagittaria pygmaea, L.; [18]): 0.0
herbicidal effect rating, SAGPY (Sagittaria pygmaea, L.; [19]): 0.0
herbicidal effect rating, SAGPY (Sagittaria pygmaea, L.; [20]): 0.0
herbicidal effect rating ORYSAT [4, 21]: 0.0
herbicidal effect rating ORYSAT [4, 22]: 0.0
herbicidal effect rating ORYSAT [4, 23]: 0.0
herbicidal effect rating ORYSAT [4, 24]: 0.0

CCCS(=O)(=O)NC(=O)COc1ccccc1-c1nsc2ccc(-n3c(=O)cc(C(F)(F)F)n(C)c3=O)cc12 [Example 556, Acetamide, 2-{o-{5-[3,6-dihydro-3-methyl-2,6-dioxo-4-(trifluoromethyl)-1(2H)-pyrimidinyl]-1,2-benzisothiazol-3-yl}phenoxy}-N-(propylsulfonyl)-]
herbicidal effect rating, MOOVA [1, 17]: 9.0
herbicidal effect rating, MOOVA [1, 18]: 9.0
herbicidal effect rating, MOOVA [1, 19]: 9.0
herbicidal effect rating, MOOVA [1, 20]: 9.0
herbicidal effect rating, MOOVA [1, 25]: 9.0
herbicidal effect rating, CYPSE [2, 17]: 2.0
herbicidal effect rating, CYPSE [2, 18]: 2.0
herbicidal effect rating, CYPSE [2, 19]: 9.0
herbicidal effect rating, CYPSE [2, 20]: 9.0
herbicidal effect rating, CYPSE [2, 25]: 0.0
herbicidal effect rating, CYPIR (Cyperus iria; [17]): 0.0
herbicidal effect rating, CYPIR (Cyperus iria; [18]): 2.0
herbicidal effect rating, CYPIR (Cyperus iria; [19]): 7.0
herbicidal effect rating, CYPIR (Cyperus iria; [20]): 9.0
herbicidal effect rating, CYPIR (Cyperus iria; [25]): 3.0
herbicidal effect rating, ECHORC [3, 17]: 2.9
herbicidal effect rating, ECHORC [3, 18]: 3.6
herbicidal effect rating, ECHORC [3, 19]: 4.4
herbicidal effect rating, ECHORC [3, 20]: 9.0
herbicidal effect rating, ECHORC [3, 25]: 9.0
herbicidal effect rating, SAGPY (Sagittaria pygmaea, L.; [17]): 0.0
herbicidal effect rating, SAGPY (Sagittaria pygmaea, L.; [18]): 0.0
herbicidal effect rating, SAGPY (Sagittaria pygmaea, L.; [19]): 6.0
herbicidal effect rating, SAGPY (Sagittaria pygmaea, L.; [20]): 4.0
herbicidal effect rating, SAGPY (Sagittaria pygmaea, L.; [25]): 3.0
herbicidal effect rating ORYSAT [4, 21]: 4.0
herbicidal effect rating ORYSAT [4, 22]: 7.0
herbicidal effect rating ORYSAT [4, 23]: 8.0
herbicidal effect rating ORYSAT [4, 24]: 9.0
herbicidal effect rating ORYSAT ([4]; Rate 0.5000 kg/ha, rated 3-4 weeks after treatment): 5.0
